In US7579468B2, “Methods of modulating neurotrophin-mediated activity” (PainCeptor Pharma Corporation, priority 2005, dated 2009):
“Also recorded” adds a separate entry of the source.

Legend:
[1] = test system: T1, PC12 (TrkA & p75); assay: 125I-NGF binding displacement in PC12 cells; set-up: species or system rat; conditions: for PC12 (TrkA & p75) Single point (% max binding) Mean: PC12 cells; for NGF binding displacement, dose-response curve: PC12 cells expressing TrkA and p75, individual experiment
T1 construct: other: Concentration 25 μM; PC12 cells; other: Concentration 50 μM; other: PC12 cells; 125I-NGF ~0.11 nM; other: PC12 cells expressing TrkA and p75; individual experiment; fused on or other part: 125I label on NGF
Procedure: (§1) All cells were incubated at 37° C. in 5% CO2. PC12 cells were maintained in RPMI-1640 medium supplemented with 10% fetal bovine serum (FBS). A875 human melanoma cells were maintained in DMEM with 10% FBS. HEK 293 cells were stably transfected with human TrkA plasmid (see below) and maintained in DMEM with 10% FBS and G418 (600 μg/mL) for selection.
(§2) NGF binding was evaluated using methods familiar to those who are skilled in the art. Briefly, cells expressing one or both NGF receptors (PC12: TrkA+p75; A875: p75 alone; HEK_TrkA: TrkA alone) were harvested by replacing the medium with calcium-magnesium free balanced salt (Grey's) solution and incubating at 37° C. for 15 min. For NGF binding, cells were resuspended at a concentration of 2×10^6 cells/mL in HEPES-Krebs-Ringer (HKR) buffer (10 mM HEPES; 125 mM NaCl; 4.8 mM KCl; 1.3 mM CaCl2; 1.2 mM MgSO4; 1.2 mM KH2PO4; 1 mg/ml BSA; 1 mg/ml glucose; pH 7.4) and exposed to ^125I-NGF (˜0.11 nM) in the presence or absence of varying concentrations of the compound. Non-specific binding was determined for reference by incubating ^125I-NGF with an excess of non-radioactive NGF in the absence of compound. Following a two-hour incubation period at 4° C., ^125I-NGF bound to the cells was quantified in a gamma radiation counter following separation from unbound NGF by filtration or centrifugation through glycerol (10% in HKR). Inhibition of binding was calculated as a percent of the specific binding (calculated as the differential between ^125I-NGF binding in the absence and presence of an excess of non-radioactive NGF without compound). Dose-response inhibition curves were typically generated with seven concentrations of a given compound, with three replicates for each concentration. For most compounds, multiple dose-response curves were generated.

[2] = test system: Mice; assay: Writhing Test (acetic acid abdominal contraction test); type: in vivo, mouse; conditions: 100 mg/kg i.p., 30 minutes following acetic acid, vehicle 57±1
Procedure: The acetic acid abdominal contraction test (Martinez et al., Pain 1999; 81: 179) was used to determine the efficacy of different compounds in a model of acute visceral chemical nociception. […] Compound or vehicle was administered (i.p. or s.c.) 15-45 minutes prior to the acetic acid injection. Each episode of writhing is characterized by a lengthwise stretching of the torso with a concomitant arching of the back.
Statistical analysis was performed using Prism™ 4.01 software package (GraphPad, San Diego, Calif., USA). The difference in response levels between treatment groups and control vehicle group was analyzed using an ANOVA followed by Bonferroni's method for post-hoc pair-wise comparisons. A p value <0.05 was considered to be significant.

[3] = test system: PC12 cells; assay: NGF-induced neurite outgrowth in PC12 cells; type: cell-based, rat; conditions: 4 days of exposure to NGF
Procedure: This assay was run as a further functional marker of NGF antagonism and takes advantage of the differentiation of PC12 cells (neurite outgrowth) induced by NGF. Cultures of PC12 cells were grown on Terasaki plates pre-coated with poly-D-lysine. Cells were exposed to NGF (1-50 (preferably 5) ng/ml) to induce neurite outgrowth as described elsewhere [L A Greene & A S Tischler, Establishment of a noradrenergic clonal line of rat adrenal pheochromocytoma cells which respond to nerve growth factor, Proc Natl Acad Sci USA. 1976 July; 73(7): 2424-2428]. In addition to NGF, cells were exposed to varying concentration of the compounds or vehicle. Following 4 days of exposure to NGF in the presence or absence of compound, neurite outgrowth was quantified. A neurite was scored if its caliber from origin to terminal was approximately the same and the length was equal to or greater than 1.5 the cell body diameter. The number of neurite bearing cells per total number of viable cells was calculated for each condition; the number of cells with neurites in the presence of NGF (without compound exposure) was considered to represent maximal (100%) outgrowth, to which the inhibitory effect of compounds of the invention on NGF-induced outgrowth was compared.

[4] = test system: T2, PC12 (TrkA & p75); assay: 125I-NGF binding displacement in PC12 cells; set-up: species or system rat; conditions: PC12, A875 and HEK_TrkA cells taken together
T2 construct: other: PC12, A875 an; fused on or other part: 125I label on NGF
Procedure: as §1, §2

[5] = test system: A875: p75 alone; assay: 125I-NGF binding displacement in A875 cells; set-up: species or system human; conditions: A875 cells expressing p75; individual experiment
Procedure: as §1, §2

[6] = test system: HEK_TrkA: TrkA alone (human TrkA); assay: 125I-NGF binding displacement in HEK_TrkA cells; conditions: individual experiment
Procedure: as §1
Expression of human TrkA in HEK cells was achieved by transfecting the cells with the TrkA expression vector using Lipofectamine (Invitrogen) reagent. HEK cells were plated in 100 mm Petri dishes at a concentration of 10^6 cells per dish. The next day, a solution of DNA diluted in 1 mL OptiMEM (Invitrogen) per dish was prepared and incubated for 15 min at room temperature. […]
NGF binding was evaluated using methods familiar to those who are skilled in the art. […] Non-specific binding was determined for reference by incubating ^125I-NGF with an excess of non-radioactive NGF in the absence of compound. Following a two-hour incubation period at 4° C., ^125I-NGF bound to the cells was quantified in a gamma radiation counter following separation from unbound NGF by filtration or centrifugation through glycerol (10% in HKR). Inhibition of binding was calculated as a percent of the specific binding (calculated as the differential between ^125I-NGF binding in the absence and presence of an excess of non-radioactive NGF without compound). […]

[7] = test system: Male Sprague-Dawley rats; assay: Spared Nerve Injury (SNI) model of neuropathic pain; type: in vivo, rat; conditions: Von Frey filaments, 90 min post-treatment, Compound 11 3 and 10 mg/kg i.p., Compound 107 20 mg/kg i.p.
Source text: The Spared Nerve Injury (SNI) model (Decosterd et al., Pain 2000; 87: 149) was used to induce chronic neuropathic pain. Male Sprague-Dawley rats were anesthetized with isoflurane, and two of the three terminal branches of the sciatic nerve (tibial and common peroneal nerves) were transected, leaving the remaining sural nerve intact. Animals develop thermal and mechanical hyperalgesia and allodynia, as well as spontaneous pain or dysesthesia that last month after the nerve injury.
Mechanical allodynia testing: Pre- and post-injury baselines as well as post-treatment values (vehicle or compound-treated animals) for mechanical allodynia were evaluated using Von Frey filaments (Stoelting, Wood Dale, Ill., USA) with varying stiffness. […] The mean and standard error of the mean (SEM) were determined for each paw in each treatment group (ipsilateral/injured paw and contralateral/non-injured paw). […] Effects of compounds were evaluated two weeks after the injury. Compound or vehicle was administered (i.p. or s.c.) and effects on mechanical allodynia were measured at different time points after dosing (e.g., 30, 60 and 90 min.).
Data analysis: Statistical analyses were conducted using Prism™ 4.01 (GraphPad, San Diego, Calif., USA). Mechanical hypersensitivity of the injured paw was determined by comparing contralateral to ipsilateral paw values within the vehicle group at each time point. […]

NNC(=O)NN1C(=O)c2cc(S(=O)(=O)[O-])cc3c(N)c(S(=O)(=O)[O-])cc(c23)C1=O.[K+].[K+] [Compound 52, 6-Amino-1,3-dioxo-2-amino-ureido-2,3-dihydro-1H-benzo[de]isoquinoline-5,8-disulfonic acid-di-potassium salt]
PC12 (TrkA & p75) Single point (% max binding) Mean ([1]; Concentration 50 μM): * (* >50)

O=C(O)CCCN1C(=O)c2cccc3cc([N+](=O)[O-])cc(c23)C1=O [Compound 63, 4-(5-Nitro-1,3-dioxo-1H,3H-benzo[de]isoquinolin-2-yl)-butyric acid]
Number of abdominal contractions (writhing) [2]: 9±3

O=C(O)CCCN1C(=O)c2cc(Br)cc3cc([N+](=O)[O-])cc(c23)C1=O [Compound 89, 4-(5-Bromo-8-nitro-1,3-dioxo-1H,3H-benzo[de]isoquinolin-2-yl)-butyric acid]
PC12 (TrkA & p75) Single point (% max binding) Mean ([1]; Concentration 50 μM): ** (30 < ** <50)

NC(=O)c1cc2c3c(cccc3c1)C(=O)N(CCCC(=O)O)C2=O [Compound 95, 4-(5-Carbamoyl-1,3-dioxo-1H,3H-benzo[de]isoquinolin-2-yl)-butyric acid]
Inhibition of NGF-induced neurite outgrowth [3]: effectively inhibits neurite outgrowth induced by NGF

O=C(O)CCCN1C(=O)c2cccc3c(C(=O)c4ccccc4)ccc(c23)C1=O [Compound 99, 4-(6-Benzoyl-1,3-dioxo-1H,3H-benzo[de]isoquinolin-2-yl)-butyric acid]
PC12 (TrkA & p75) Single point (% max binding) Mean ([1]; Concentration 25 μM): *** (* < *** <30)

O=C(O)CCCN1C(=O)c2cccc3c(C(=O)O)ccc(c23)C1=O [Compound 100, 2-(3-Carboxy-propyl)-1,3-dioxo-2,3-dihydro-1H-benzo[de]isoquinoline-6-carboxylic acid]
PC12 (TrkA & p75) Single point (% max binding) Mean ([1]; Concentration 25 μM): *** (* < *** <30)

O=C1Nc2ccc([N+](=O)[O-])c3cccc1c23 [Compound 103, 6-Nitro-1H-benzo[cd]indol-2-one]
PC12 (TrkA & p75) Single point (% max binding) Mean ([1]; Concentration 25 μM): * (* >50)

O=C(O)CCCN1C(=O)c2cccc3c(Cl)ccc(c23)C1=O [Compound 104, 4-(6-Chloro-1,3-dioxo-1H,3H-benzo[de]isoquinolin-2-yl)-butyric acid]
PC12 (TrkA & p75) Single point (% max binding) Mean ([1]; Concentration 25 μM): ** (30 < ** <50)

CC(=O)Nc1cc2c3c(cc(NC(C)=O)cc3c1)C(=O)N(CCCS(=O)(=O)O)C2=O [Compound 107, 3-(5,8-Bis-acetylamino-1,3-dioxo-1H,3H-benzo[de]isoquinolin-2-yl)-propane-1-sulfonic acid]
NGF binding displacement, dose-response curve [1]: effectively blocks NGF binding to cells expressing TrkA and p75
Block of NGF binding to TrkA and/or p75 (summary of FIGS. 1B, 2A, 2B, 4A, 4B, 6A, 6B, 7A, 8A, 8B) [4]: effectively block NGF binding to TrkA and/or p75
NGF binding displacement, dose-response curve [5]: effectively blocks NGF binding to cells expressing p75
NGF binding displacement, dose-response curve [6]: effectively blocks NGF binding to cells expressing TrkA
Inhibition of NGF-induced neurite outgrowth [3]: effectively inhibits neurite outgrowth induced by NGF
Effect on mechanical allodynia in the SNI model [7]: significant dose-dependent reversal of the mechanical allodynia; also recorded: significant antinociceptive effects

CN(C)S(=O)(=O)c1ccc2c3c(cccc13)C(=O)N(CCCC(=O)O)C2=O [Compound 112, 4-(6-Dimethylsulfamoyl-1,3-dioxo-1H,3H-benzo[de]isoquinolin-2-yl)-butyric acid]
PC12 (TrkA & p75) Single point (% max binding) Mean ([1]; Concentration 50 μM): *** (* < *** <30)

O=C(O)CCCN1C(=O)c2cccc3c(S(=O)(=O)N4CCOCC4)ccc(c23)C1=O [Compound 113, 4-[6-(Morpholine-4-sulfonyl)-1,3-dioxo-1H,3H-benzo[de]isoquinolin-2-yl]-butyric acid]
PC12 (TrkA & p75) Single point (% max binding) Mean ([1]; Concentration 50 μM): ** (30 < ** <50)

CN(C)S(=O)(=O)c1cc2c3c(cccc3c1)C(=O)N(CCCC(=O)O)C2=O [Compound 114, 4-(5-Dimethylsulfamoyl-1,3-dioxo-1H,3H-benzo[de]isoquinolin-2-yl)-butyric acid]
PC12 (TrkA & p75) Single point (% max binding) Mean ([1]; Concentration 50 μM): ** (30 < ** <50)

N#Cc1cc2c3c(cccc3c1)C(=O)N(CCCC(=O)O)C2=O [Compound 124, 4-(5-Cyano-1,3-dioxo-1H,3H-benzo[de]isoquinolin-2-yl)-butyric acid]
NGF binding displacement, dose-response curve [1]: effectively blocks NGF binding to cells expressing TrkA and p75
Block of NGF binding to TrkA and/or p75 (summary of FIGS. 1B, 2A, 2B, 4A, 4B, 6A, 6B, 7A, 8A, 8B) [4]: effectively block NGF binding to TrkA and/or p75
NGF binding displacement, dose-response curve [5]: effectively blocks NGF binding to cells expressing p75
Inhibition of NGF-induced neurite outgrowth [3]: effectively inhibit neurite outgrowth induced by NGF
